Laboratory results as given in paper PMC12731536, “Sc(III) Complexes of Pyclen Derivative Ligands as Probes for Hypoxia: Synthesis, Chemical Characterization, ^44Sc‐Radiolabeling, and Preclinical Assessment” (Chemistry (Weinheim an Der Bergstrasse, Germany), 2025).

Key:
[1] = Stability constants of Sc(III) complexes, out‐of‐cell (batch) samples, 45Sc NMR; type: physicochemical; conditions: I = 1.00 M NaCl; for pSc: pSc = ‐log[Sc(III)]free, cSc(III) = 1x10^−8 M, clig = 1x10^−7 M; for log K ScL: stability constant of the Sc(III) complex, T = 25 °C
Procedure: The stability constant of the complex of PC2AM^nBu ligand formed with Sc(III) ion was studied using “out‐of‐cell” (batch) samples using ^45Sc NMR spectroscopy in strongly acidic media. Typical ^45Sc NMR spectra are shown in Figure 5 along with the corresponding ^1H NMR spectra of the aromatic region of the ligand.
Using the ^45Sc NMR signal intensities of free Sc^3+ measured in the equilibrated samples, the stability constant, K ScL, was calculated by fitting the areas with the PSEQUAD program ^[ [47] ^] (Figure 6). The best fitting was observed by considering the simplest model including only [Sc(PC2AM^nBu)]^+ species; that is, the formation of protonated [Sc(HPC2AM^nBu)]^2+ cannot be confirmed.
The stability constant of the [Sc(PCTA)] complex was determined in a similar way (Figure S13). The results were summarized in Table 2, including the data of [Sc(DO3AM‐NI)], determined in our previous study.^[ [33] ^]
Among the complexes shown in Table 2, the [Sc(DO3AM‐NI)] complex has the highest stability, but its stability constant is lower than the corresponding values of [Sc(DOTA)]^− (log K ScL = 30.79) and [Sc(DTPA)]^2− (log K ScL = 27.43). ^[ [49] ^] As evidenced for DO3AM‐mono(amide) the replacement of acetate side chains with amide groups results in a decrease in stability constant (and conditional stability); therefore, we can see an order of magnitude difference between the stabilities of [Sc(PCTA)] and [Sc(PC2AM^nBu)]^+. Although these K ScL constants and pSc values are somewhat lower than those of the complexes formed with traditional DOTA and DTPA ligands, these chelators remain remarkably good Sc(III)‐binding chelators. […] Therefore, following the proposal of M. Meyer and colleagues,^[ [48] ^] […] For the AL/M values, 1 corresponds to 90%, 2 corresponds to 99%, 3 corresponds to 99.9% etc. for complex formation. […] The AL/M data of the [Sc(PC2AM^nBu)]^+ complex only exceeds that of the [Sc(DO3AM‐NI)] complex in the pH < 3.0 range, which can be advantageous for labeling at low pH. Furthermore, based on the data in Table 2, it can be concluded that for these systems there is no discrepancy between the trends observed in the pSc and AL/M values.
The stability constant of [Sc(PC2AM^nBu)]^+ and [Sc(PCTA)] complexes was studied using “out‐of‐cell” (batch) samples using ^45Sc and ^1H NMR spectroscopy. The NMR spectra were obtained using a Bruker Avance II DRX spectrometer (9.4 T), equipped with Bruker Variable Temperature Unit, Bruker Cooling Unit, and a 5 mm BB inverse z gradient probe. For the investigation of [Sc(PC2AMnBu)]⁺, twelve samples (cSc(III) = 3.00 mM, cligand = 3.06 mM, in the pH range of –log[H^+] = 0.1–1.3; I = 1.0 M NaCl/HCl) were prepared in NMR tubes and kept at 25 °C for one week to reach equilibrium. During this period, ^1H and ^45Sc NMR measurements were performed daily to monitor changes in signal intensities. No significant changes were detected after one week, even in the most acidic sample. The intensities of the free Sc(III) signals were normalized using a standard 50 mM ScCl3 solution containing 1 M HCl (20% D2O). For the determination of the stability of the [Sc(PCTA)] complex, eleven “batch” samples (cSc(III) = 4.00 mM, cligand = 4.08 mM), in the pH range of –log[H^+] = 0.1–1.25, were prepared. The evaluation of the measured data was performed using the PSEQUAD program.^[ [47] ^] Samples were prepared in H2O, with 10% D2O added for deuterium lock. The actual resonance frequencies for ^1H, ^13C, ^19F, and ^45Sc are indicated in the text and figure captions. The chemical shifts of ^1H and ^13C were calibrated using an external TMS standard, while ^19F was referenced to CCl3F. The ^45Sc NMR shift was calibrated to 0 ppm using a 5 mM solution of ScCl3 in 0.1 M HCl.

[2] = Acid‐assisted dissociation (decomplexation) of Sc(III) complexes, UV spectroscopy; type: physicochemical
From the text: The inertness of metal complexes is a basic requirement in all relevant modalities of medical imaging. Complexes of macrocyclic ligands are often more inert compared to open‐chain analogs. In order to assess the behavior of our complexes, the decomplexation of [Sc(PC2AM^nBu)]^+ and [Sc(PCTA)] was studied in a strongly acidic medium (cH + = 1.6 ‐ 2.6 M HClO4) by using UV spectroscopy. […] The primary Abs. versus time curves have been fitted by monoexponential function returning kobs (s^−1) values (Figures S22 and S23).
The plots of the rate constants as a function of acid concentration yielded linear relationships for both complexes (k obs = k 0 + k 1[H^+]). The slopes of these lines correspond to the rate coefficients characteristic for acid‐assisted dissociation (k 1), whereas the intercepts characterize the acid‐independent part, often referred to as a rate of spontaneous dissociation. […] The rate coefficients obtained during the fitting are summarized in Table 3, along with the half‐lives calculated from the rate coefficients by using 1 M acid concentration (t ½ = ln 2 / k obs).
Kinetic studies of the dissociation of the [Sc(PC2AMnBu)]^+ and [Sc(PCTA)] complexes were carried out by examining the dependence of the dissociation rates on acid concentration. Spectrophotometric measurements were conducted on a JASCO V‐760 spectrophotometer at λ = 280 nm. The concentration of the complex in the sample was 0.30 mM, and HClO4 was applied in concentrations ranging from 1.6 to 2.6 M. The evaluation of the measured data was performed with Scientist software ^[ [62] ^] to determine the k 0 (spontaneous) and k 1 (acid‐assisted) reaction rates.

[3] = dissociation of the Sc(III) complex, 1.6‐2.6 M HClO4, 25 °C, I = 2.6 M

AL/M (relative affinity) ([1]; [Sc(III)]total = 10 nM, [L]tot = 100 nM, pH = 7.4)	pSc ([1]; pH = 7.4)	log K ScL [1]	t 1/2 of dissociation (1 M H^+) ([2]; calculated from rate coefficients at 1 M acid concentration, 25 °C)	Compound	k 0 (spontaneous dissociation) [2, 3]	k 1 (acid‐assisted dissociation) [2, 3]
7.14	21.28	22.41(9)		O=C(O)CN1CCN(CC(=O)O)Cc2cccc(n2)CN(CC(=O)O)CC1 [PCTA, reference compound]	(4.21 ± 0.81) x 10^−6 s^−1	(2.11 ± 0.38) x 10^−6 M^−1s^−1
	19.32	19.53(4)	22 days	CCCCNC(=O)CN1CCN(CC(=O)[O-])Cc2cccc(n2)CN(CC(=O)[O-])CC1.[Sc+3] [[Sc(PC2AM^nBu)]^+]		
